# Measurements reported in US20210030703A1, “USE OF CALORIC RESTRICTION MIMETICS FOR POTENTIATING CHEMO-IMMUNOTHERAPY FOR THE TREATMENT OF CANCERS” (INSERM (INSTITUT NATIONAL DE LA SANTÉ ET DE LA RECHERCHE …, priority 2018, published 2021).
# Assays:
# MCA205 fibrosarcoma = experiment: Subcutaneous MCA205 fibrosarcoma: tumor growth, cure and survival under chemo-immunotherapy; type: in vivo, C57B1/6 mice; settings: for Complete responses leading to tumor eradication: endpoint 50 days after chemotherapy; for Efficacy of MTX + ICIs (anti-PD-1 plus anti-CTLA-4) chemo-immunotherapy when the CRM is added: figure legends FIG. 2, 3, 4, 6
# Experimental: Mouse strain and housing. Six- to 8-week-old wild-type female C57B1/6 mice were obtained from Envigo RMS SARL (Gannat, France). Animals were maintained in specific pathogen-free conditions in a temperature-controlled environment with 12 h light, 12 h dark cycles and received food and water ad libitum (unless precised otherwise). Animal experiments were in compliance with the EU Directive 63/2010 and approved by the Ethical Committee of the Cordeliers Research Center (Paris, France). All mouse experiments were randomized and blinded, and sample sizes were calculated to detect a statistically significant effect.
# In vivo experimentations. Tumor engraftment was performed through subcutaneous injection of 3×10^5 MCA205 fibrosarcoma tumor cells (in 100 μl PBS) in the right flank of the mice. Tumor volume was monitored using a digital caliper and calculated according to the formula: volume=length×width×height/8×4/3 pi. When tumor reached 20 mm^3 on average, mice underwent fasting (48 hours without food but ad libitum access to water) or were given caloric restriction mimetics (CRMs) such as aspirin (Asp; 10 mg/kg i.p. in 200 μl phosphate buffered saline [PBS] five times per week), hydroxycitrate (HC; 5 mg/ml in drinking water daily) or spermidine (Spd; 50 mg/kg i.p. in 200 μl Earle's balanced salt solution three times per week), or were treated with mitoxantrone (MTX; 5.17 mg/kg i.p. in 200 μl PBS), or with the immune checkpoint inhibitors (ICIs) anti-PD-1 (10 mg/kg i.p. in 200 μl PBS) and/or anti-CTLA-4 (5 mg/kg i.p. in 200 μl PBS). Tumor size was carefully monitored up to 50 days post-MTX. Antitumor immunity induced by the treatment in cured mice was challenged by subcutaneously re-engrafting the same tumor (3×10^5 syngeneic MCA205 fibrosarcoma cells) in one flank while an antigenically unrelated cancer (3×10^5 syngeneic TC1 lung carcinoma cells) was implanted into the contralateral flank.
# Statistical analyses. For tumor size comparison, Student unpaired t test or one-way ANOVA (Holm-Sidak) were performed. All statistical analyses were performed using GraphPad Prism version 6 for Windows (GraphPad Software, La Jolla, Calif., USA). Differences were considered significant when p value<0.05.
# PD-L2 = PD-L2 expression in tumor cells; type: in vivo, C57B1/6 mice; settings: data not shown
# Experimental: 3 or 11 days post-chemotherapy (d3 or d11), mice were euthanized and the tumors were withdrawn and placed in gentleMACS C tubes (ref 130-096-334 from Miltenyi Biotec™) previously filled with 1 ml of DMEM or RPMI medium, and immediately put on ice. After a mechanical (with scissors) and chemical digestion (thanks to the tumor dissociation kit and the gentleMACS Octo Dissociator, ref 130-096-730 and 130-096-427, respectively, from Miltenyi Biotec™), tumors were filtered (using MACS smartstrainers […], ref 130-110-916 from Miltenyi Biotec™), washed twice with PBS and distributed in a 96-wells round bottom plate.
# Then, cells were stained with a live dead dye (ref L34959 from ThermoFisher Scientific™) and an FCblock receptor targeting antibody. […] Finally, cells were resuspended in FACS buffer and analyzed on a flow cytometer BD LSR II.
# [1] = HC + MTX chemotherapy + immunotherapy (anti-PD-1 plus anti-CTLA-4)
SMILES,Complete responses at day 30 (MCA205 fibrosarcoma; [1]),Stable response (MCA205 fibrosarcoma; [1]),"Reduction of tumor growth (MCA205 fibrosarcoma; HC in drinking water + MTX chemotherapy + immunotherapy, versus all other groups)","Reduction of tumor growth and prolongation of survival (MCA205 fibrosarcoma; HC+MTX versus MTX alone, data not shown)",Complete responses leading to tumor eradication (MCA205 fibrosarcoma; MTX plus HC),"Tumor-free mice (MCA205 fibrosarcoma; MTX pre-treatment associated with the CRM, then CTLA-4/PD-1-blocking antibodies (FIG. 6))",Efficacy of MTX + ICIs (anti-PD-1 plus anti-CTLA-4) chemo-immunotherapy when the CRM is added (MCA205 fibrosarcoma),Efficacy of MTX + ICIs (anti-PD-1 plus anti-CTLA-4) chemo-immunotherapy when the CRM is added (MCA205 fibrosarcoma; listed as Hydroxycitrate),"Response to CTLA-4/PD-1-blockade (MCA205 fibrosarcoma; pretreated with the CRM alone (without MTX), data not shown)",Effect of co-treatment on MTX-induced PD-L2 increase in CD45- cells (PD-L2),Complete responses leading to tumor eradication (MCA205 fibrosarcoma; MTX plus immunotherapy (antibodies blocking CTLA-4 or PD-1)),Complete responses leading to tumor eradication (MCA205 fibrosarcoma; MTX plus isotypes),"Complete cure (MCA205 fibrosarcoma; MTX pretreatment, then CTLA-4/PD-1-blocking antibodies from day 8 post-chemotherapy (FIG. 6))",PD-L2 expression in CD45- cells (PD-L2; MTX)
"O=C(O)CC(O)(C(=O)O)C(O)C(=O)O (centres unmarked) [HC, hydroxycitrate]",all animals of the group,7 out of 8,more efficient in reducing tumor growth than all other groups,more successful in reducing tumor growth and in prolonging survival than MTX alone,either not seen at all or rare,7 out of 10,further enhanced,enhances tumor growth control,did not respond,not affected,,,,
"O=C1c2c(O)ccc(O)c2C(=O)c2c(NCCNCCO)ccc(NCCNCCO)c21 [MTX, mitoxantrone]",,,,,,,,,,,either not seen at all or rare,either not seen at all or rare,3 out of 10,increase
